{"source": "patent US5159061A", "about": "“Atrial natriuretic peptide derivative” (Takeda Chemical Industries, Ltd., priority 1986, dated 1992)", "key": {"[1]": {"settings": "the molecule shown is the open-chain precursor, disulfide bond, 2 steps"}, "[2]": {"tested_on": "spontaneously hypertensive rats (SHR)", "experiment": "Hypotensive action in spontaneously hypertensive rats (SHR)", "type": "in vivo, rat", "settings": "male SHR, 20 weeks old; intravenous 100 μg/250 μl/kg in physiological saline; maximum decrease in blood pressure, difference from preadministration value", "experimental": "Hypotensive action in spontaneously hypertensive rats (SHR)\nThree male SHRs at the age of 20 weeks in each group were anesthetized with pentobarbital (50 mg/kg, intraperitoneal administration); SP-10 and SP-45 polyethylene tubes (manufactured by Natsume Seisakusho, Japan) were inserted respectively into the groin artery and vein, and through each of these a cannula was passed to the neck site via the back subcutaneous tissue, and one end of the cannula was fixed there. The rats were used in experiments the following day. As a α-hANP derivatives, [Aib^6 ]-α-hANP[6-28] obtained in Example 1 and [Aib^6,Ile^12 ]-α-hANP[6-28] obtained in Example 8, and as a control, α-hANP[7-28], in solution in physiological saline, were each intravenously administered in the ratio of 100 μg/250 μl/kg of body weight. Hypotensive activities are shown as a degree of the maximum decrease in blood pressure (difference from the preadministration value) that occurred after the administration of the subject compound."}, "[3]": {"settings": "53-membered ring, air (after HF deprotection)"}, "[4]": {"settings": "53-membered ring, air/NH4OAc/NH3 pH 6.9, water, 0.052 mM, 25.0 °C"}}, "note": "Like-named read-outs stand apart in the source and are kept apart here. Where a SMILES comes first, the peptide text is derived from it. Bridges are numbered along the chain shown (N, C = ends). [ ]: non-standard residue; d: D form. Aib = CC(C)(N)C(=O)O", "data": [{"compound": "H-Cys-Phe-βAla-Arg-Met-Asp-Arg-Ile-Gly-Ala-Gln-Ser-Gly-Leu-Gly-Cys-Asn-Ser-Phe-Arg-Tyr-OH", "values": [{"measurement": "ring closure, isolated yield", "setting": "[1]; 51-membered ring, air/NH4OAc/NH3 pH 6.9, water, 0.056 mM, 25.0 °C", "result": 17, "unit": "%"}]}, {"compound": "H-Ala-Cys-Phe-Gly-Gly-Arg-Met-Asp-Arg-Ile-Gly-Ala-Gln-Ser-Gly-Leu-Gly-Cys-Asn-Ser-Phe-Arg-Tyr-OH", "values": [{"measurement": "ring closure, isolated yield", "setting": "[1]; [3]", "result": 14, "unit": "%"}]}, {"compound": "H-Cys-Phe-dAla-Gly-Arg-Met-Asp-Arg-Ile-Gly-Ala-Gln-Ser-Gly-Leu-Gly-Cys-Asn-Ser-Phe-Arg-Tyr-OH", "values": [{"measurement": "ring closure, isolated yield", "setting": "[1]; 53-membered ring, air/NH4OAc/NH3 pH 6.9, water, 0.053 mM, 25.0 °C", "result": 16, "unit": "%"}]}, {"compound": "H-Cys-Phe-Gly-Arg-Met-Asp-Arg-Ile-Gly-Ala-Gln-Ser-Gly-Leu-Gly-Cys-Asn-Ser-Phe-Arg-Tyr-OH", "values": [{"measurement": "ring closure, isolated yield", "setting": "[1]; 50-membered ring, air/NH4OAc/NH3 pH 6.9, water, 0.056 mM, 25.0 °C", "result": 18, "unit": "%"}]}, {"compound": "H-Cys-Phe-Gaba-Arg-Met-Asp-Arg-Ile-Gly-Ala-Gln-Ser-Gly-Leu-Gly-Cys-Asn-Ser-Phe-Arg-Tyr-OH", "values": [{"measurement": "ring closure, isolated yield", "setting": "[1]; 52-membered ring", "result": 20, "unit": "%"}]}, {"compound": "CC[C@H](C)[C@@H]1NC(=O)[C@H](CCCNC(=N)N)NC(=O)[C@H](CC(=O)O)NC(=O)[C@H](CCSC)NC(=O)[C@H](CCCNC(=N)N)NC(=O)CNC(=O)CNC(=O)[C@H](Cc2ccccc2)NC(=O)[C@@H](NC(=O)C(C)(C)N)CSSC[C@@H](C(=O)N[C@@H](CC(N)=O)C(=O)N[C@@H](CO)C(=O)N[C@@H](Cc2ccccc2)C(=O)N[C@@H](CCCNC(=N)N)C(=O)N[C@@H](Cc2ccc(O)cc2)C(=O)O)NC(=O)CNC(=O)[C@H](CC(C)C)NC(=O)CNC(=O)[C@H](CO)NC(=O)[C@H](CCC(N)=O)NC(=O)[C@H](C)NC(=O)CNC1=O", "note": "[[Aib^6]-α-hANP[6-28]] (H-[Aib]CFGGRMDRIGAQSGLGCNSFRY-OH; disulfide 2-18)", "values": [{"measurement": "Degree of Decrease in Blood Pressure", "setting": "[2]", "result": "-70 ΔmmHg"}]}, {"compound": "H-Aib-Cys-Phe-Gly-Gly-Arg-Nle-Asp-Arg-Ile-Gly-Ala-Gln-Ser-Gly-Leu-Gly-Cys-Asn-Ser-Phe-Arg-Tyr-OH", "values": [{"measurement": "ring closure, isolated yield", "setting": "[1]; [3]", "result": 14.4, "unit": "%"}]}, {"compound": "H-Cys-Phe-Gly-Gly-Arg-Met-Asp-Arg-Ile-Gly-Ala-Gln-Ser-Gly-Leu-Gly-Cys-Asn-Ser-Phe-dArg-Tyr-OH", "values": [{"measurement": "ring closure, isolated yield", "setting": "[1]; [3]", "result": 25, "unit": "%"}]}, {"compound": "H-Cys-Phe-Gly-Gly-Arg-DL-Chg-Asp-Arg-Ile-Gly-Ala-Gln-Ser-Gly-Leu-Gly-Cys-Asn-Ser-Phe-Arg-Tyr-OH", "values": [{"measurement": "ring closure, isolated yield", "setting": "[1]; [3]", "result": 38, "unit": "%"}]}, {"compound": "H-Aib-Cys-Phe-Gly-Gly-Arg-Leu-Asp-Arg-Ile-Gly-Ala-Gln-Ser-Gly-Leu-Gly-Cys-Asn-Ser-Phe-Arg-Tyr-OH", "values": [{"measurement": "ring closure, isolated yield", "setting": "[1]; [3]", "result": 22, "unit": "%"}]}, {"compound": "H-Cys-Phe-Ava-Arg-Met-Asp-Arg-Ile-Gly-Ala-Gln-Ser-Gly-Leu-Gly-Cys-Asn-Ser-Phe-Arg-Tyr-OH", "values": [{"measurement": "ring closure, isolated yield", "setting": "[1]; 53-membered ring, air/NH4OAc/NH3 pH 6.9, water, 0.055 mM, 25.0 °C", "result": 30, "unit": "%"}]}, {"compound": "H-Aib-Cys-Phe-Gly-Gly-Arg-Met-Asp-Arg-Ile-Gly-Ala-Gln-Ser-Gly-Leu-Gly-Cys-Asn-Ser-Phe-Arg-Tyr-OH", "values": [{"measurement": "ring closure, isolated yield", "setting": "[1]; [4]", "result": 12, "unit": "%"}]}, {"compound": "H-dAla-Cys-Phe-Gly-Gly-Arg-Met-Asp-Arg-Ile-Gly-Ala-Gln-Ser-Gly-Leu-Gly-Cys-Asn-Ser-Phe-Arg-Tyr-OH", "values": [{"measurement": "ring closure, isolated yield", "setting": "[1]; [3]", "result": 17, "unit": "%"}]}, {"compound": "H-Ile-Cys-Phe-Gly-Gly-Arg-Met-Asp-Arg-Ile-Gly-Ala-Gln-Ser-Gly-Leu-Gly-Cys-Asn-Ser-Phe-Arg-Tyr-OH", "values": [{"measurement": "ring closure, isolated yield", "setting": "[1]; [3]", "result": 11, "unit": "%"}]}, {"compound": "H-Val-Cys-Phe-Gly-Gly-Arg-Met-Asp-Arg-Ile-Gly-Ala-Gln-Ser-Gly-Leu-Gly-Cys-Asn-Ser-Phe-Arg-Tyr-OH", "values": [{"measurement": "ring closure, isolated yield", "setting": "[1]; [3]", "result": 16, "unit": "%"}]}, {"compound": "H-Achc-Cys-Phe-Gly-Gly-Arg-Met-Asp-Arg-Ile-Gly-Ala-Gln-Ser-Gly-Leu-Gly-Cys-Asn-Ser-Phe-Arg-Tyr-OH", "values": [{"measurement": "ring closure, isolated yield", "setting": "[1]; [4]", "result": 22, "unit": "%"}]}, {"compound": "CC[C@H](C)[C@@H]1NC(=O)[C@H](CCCNC(=N)N)NC(=O)[C@H](CC(=O)O)NC(=O)[C@H]([C@@H](C)CC)NC(=O)[C@H](CCCNC(=N)N)NC(=O)CNC(=O)CNC(=O)[C@H](Cc2ccccc2)NC(=O)[C@@H](NC(=O)C(C)(C)N)CSSC[C@@H](C(=O)N[C@@H](CC(N)=O)C(=O)N[C@@H](CO)C(=O)N[C@@H](Cc2ccccc2)C(=O)N[C@@H](CCCNC(=N)N)C(=O)N[C@@H](Cc2ccc(O)cc2)C(=O)O)NC(=O)CNC(=O)[C@H](CC(C)C)NC(=O)CNC(=O)[C@H](CO)NC(=O)[C@H](CCC(N)=O)NC(=O)[C@H](C)NC(=O)CNC1=O", "note": "[[Aib^6, Ile^12]-α-hANP[6-28]] (H-[Aib]CFGGRIDRIGAQSGLGCNSFRY-OH; disulfide 2-18)", "values": [{"measurement": "Degree of Decrease in Blood Pressure", "setting": "[2]", "result": "-90 ΔmmHg"}]}]}
